The values below come from article PMC8564487, “MHC-Optimized Peptide Scaffold for Improved Antigen Presentation and Anti-Tumor Response” (Frontiers in Immunology, 2021).

Format in all cases: in vivo, C57BL/6 mice
For assay [1], the system named is splenocytes. Nature of the assay: IFN-γ EliSpot cross-reactivity between wt and htcPep after immunization. The settings on record: mice immunized with NAL peptide, splenocytes re-stimulated with the labelled peptide. The procedure: C57BL/6 mice were immunized with the different htcPep. In particular, each group of animals (6 for each group) were injected by sub-cutaneous (s.c.) route with 100 µg of WT, INC (mix of selected htcPep), NAL or MIX peptides (peptide library) respectively, emulsified with 50 μg of Polyinosinic:polycytidylic acid [poly(I:C); InvivoGen] adjuvant formulated in PBS (200ul total volume). Each group received weekly the peptide vaccine in combination with metronomic chemotherapy (MCT) and ICI. One group was treated only with MCT and ICI (MCT + ICI group). Control mice were treated with endotoxin-free phosphate-buffered saline (PBS). Splenocytes were re-stimulated ex-vivo O/N with the different peptides in an IFN-γ EliSpot assay.
ELISPOT was performed according to BD Biosciences manufacturer instructions (BD ELISPOT Mouse IFN-γ ELISPOT Set cod. 551083). 5x10^5 splenocytes or 2 x10^5 tumor infiltrated lymphocytes (TIL) were counted and plated in each well. […]
Both splenocytes and TILs were stimulated with 10ug/ml of single or peptide pool used for the immunization and incubated for 24-26h. […] The plates were read with an AID EliSpot Reader Systems (AID GmbH, Strassberg, Germany). The results were calculated as spot forming counts as a mean of a duplicate count from the specific antigen stimulation minus the negative control.

For assay [2], the system named is B16F10 tumors. Nature of the assay: Tumor necrosis rate (H&E) in B16F10 tumors. The conditions noted are these: H&E staining. The procedure:
Finally, tumor necrosis rates were evaluated for each tumor lesion. The slides were stained with hematoxylin and eosin and then subjected to reading and determination of areas of necrosis. For percentage of necrosis through the tumor mass, was used the following formula: …
%necrosis area: (necrosis area/total tumoral mass area)∗100

The subject of assay [3] is B16F10 tumors. Nature of the assay: IHC of tumor-infiltrating lymphocytes in B16F10 tumors. The conditions noted are these: B16F10 tumors at sacrifice, Trp2 groups, Central Tumor. From the text:
Formalin-Fixed Paraffin-Embedded (FFPE) sections were stained with CD3+, FoxP3 and Granzime B antibodies manually. Visualization of the antibody–antigen reaction was visualized by anti-alkaline phosphatase methods using Vulcan fast red (Biocare Medical FR805S) as the chromogenic substrate. Finally, sections were weakly counterstained with hematoxylin and mounted.
Lymphocyte densities (cells/mm2) were quantified in the tumor (CT) and invasive margin (IM) by digital pathology. The slides were scanned with Aperio AT2 (Leica) and the areas (CT, IM) were selected by an experienced pathologist (MDB). Finally, the acquired images were quantified using QuPath 0.2.3.
To evaluate the balance between cytotoxic and immune suppressive activity of B16 tumor model a formula considering the numerical difference between the GrzB+ cells (cytotoxic cells) and the FOXP3+ cells (immunosuppressive cells), on total CD3+ cells, was applied. The formula is schematized as:
Ratio=(# of GRZB−# of FOXP3)/# of CD3.

With “D4W: heteroclitic Trp2 peptide with Tryptophan substitution at position 4 (SVYWFFVWL; UniProt P29812 180-188, looked up, variant D183W)”, the “T cell cross-reactivity of NAL-immunized animals with challenging htcPep” value in assay [1] (Trp2 series) is listed as “strongest T cells cross-reactivity”.
For “Trp2 wt: wild type Trp2 H-2Db epitope expressed by B16F10 melanoma cells (SVYDFFVWL; Trp2 H-2Db epitope; UniProt P29812 180-188, looked up, fragment)”, in assay [2], the “% of necrosis (necrosis area/total tumoral mass area)” value was found to be 10%. Moreover, in assay [3], the “Average number of FOXP3+ T cells, CT area” value was 2.8.
“Y4W: heteroclitic E7 peptide with Tryptophan substitution at position 4 (RAHWNIVTF; UniProt P03129 49-57, looked up, variant Y52W)”: the “T cell cross-reactivity of NAL-immunized animals with challenging htcPep” value in assay [1] (HPV-E7 series) is listed as “strongest T cells cross-reactivity”.
